Data as given in patent publication US20200376007A1, “THERAPEUTIC COMPOUNDS AND METHODS OF USE THEREOF” (REGENTS OF THE UNIVERSITY OF MINNESOTA, priority 2019, published 2020).

Biological target: T1, human TGR5 receptor (Homo sapiens, UniProt Q8TDU6)
T1 construct: expressed in transfected cells
T1 sequence (Q8TDU6 1-330): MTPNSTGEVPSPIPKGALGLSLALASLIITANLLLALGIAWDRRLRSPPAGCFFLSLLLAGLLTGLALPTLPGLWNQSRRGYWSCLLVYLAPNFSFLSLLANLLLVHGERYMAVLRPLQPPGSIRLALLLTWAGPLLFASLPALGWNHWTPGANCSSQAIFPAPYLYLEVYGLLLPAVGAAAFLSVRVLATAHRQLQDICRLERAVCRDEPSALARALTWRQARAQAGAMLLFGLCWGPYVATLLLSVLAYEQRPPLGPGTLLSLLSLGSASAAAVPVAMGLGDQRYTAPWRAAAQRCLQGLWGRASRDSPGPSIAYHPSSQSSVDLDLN
Assay: TGR5 cAMP assay
Format: cell-based
Conditions: TGR5 agonist activity; cAMP production in a recombinant cell line expressing human TGR5 receptor
Experimental: TGR5 agonist activity was evaluated by assaying cAMP production in a recombinant cell line expressing human TGR5 receptor.

`CO[C@@H]1C[C@@H]2C[C@H](O)CC[C@]2(C)[C@H]2CC[C@]3(C)[C@@H]([C@H](C)CCC(=O)O)CC[C@H]3[C@H]12` [Example 3, (R)-4-((3R,5S,7R,8R,9S,10S,13R,14S,17R)-3-hydroxy-7-methoxy-10,13-dimethylhexadecahydro-1H-cyclopenta[a]phenanthren-17-yl)pentanoic acid] showed an EC50 of 74.9 nM.

`COCCOCCNC(=O)CC[C@@H](C)[C@H]1CC[C@H]2[C@@H]3[C@H](OC)C[C@@H]4C[C@H](O)CC[C@]4(C)[C@H]3CC[C@]12C` [Example 4, (R)-4-((3R,5S,7R,8R,9S,10S,13R,14S,17R)-3-hydroxy-7-methoxy-10,13-dimethylhexadecahydro-1H-cyclopenta[a]phenanthren-17-yl)-N-(2-(2-methoxyethoxy)ethyl)pentanamide] was tested, and the EC50 was 49.5 nM.

In the case of `COCc1nnc(CC[C@@H](C)[C@H]2CC[C@H]3[C@@H]4[C@H](OC)C[C@@H]5C[C@H](O)CC[C@]5(C)[C@H]4CC[C@]23C)o1` [Example 5, (3R,5S,7R,8R,9S,10S,13R,14S,17R)-7-methoxy-17-((R)-4-(5-(methoxymethyl)-1,3,4-oxadiazol-2-yl)butan-2-yl)-10,13-dimethylhexadecahydro-1-cyclopenta[a]phenanthren-3-ol], the EC50 is reported as 22.6 nM.

In the case of `CO[C@@H]1C[C@@H]2C[C@H](O)CC[C@]2(C)[C@H]2CC[C@]3(C)[C@@H]([C@H](C)CCC(=O)NC[C@H](O)[C@@H](O)[C@H](O)[C@H](O)CO)CC[C@H]3[C@H]12` [Example 6, (R)-4-((3R,5S,7R,8R,9S,10S,13R,14S,17R)-3-hydroxy-7-methoxy-10,13-dimethylhexadecahydro-1H-cyclopenta[a]phenanthren-17-yl)-N-((2S,3R,4R,5R)-2,3,4,5,6-pentahydroxyhexyl)pentanamide], the EC50 is reported as 27.7 nM.

In the case of `CO[C@@H]1C[C@@H]2C[C@H](O)CC[C@]2(C)[C@H]2CC[C@]3(C)[C@@H]([C@H](C)CCC(=O)N(C)C[C@H](O)[C@@H](O)[C@H](O)[C@H](O)CO)CC[C@H]3[C@H]12` [Example 7, (R)-4-((3R,5S,7R,8R,9S,10S,13R,14S,17R)-3-hydroxy-7-methoxy-10,13-dimethylhexadecahydro-1H-cyclopenta[a]phenanthren-17-yl)-N-methyl-N-((2S,3R,4R,5R)-2,3,4,5,6-pentahydroxyhexyl)pentanamide], the EC50 is reported as 60.1 nM.
